According to ChEMBL document CHEMBL1126486, “Stable isosteres of neurotensin c-terminal pentapeptides derived by modification of the amide function” (Bioorg Med Chem Lett, 1993):
Where a SMILES comes first, the peptide text is derived from it. [ ]: non-standard residue; d: D form. The star is where a group is joined. Adamantane1carbonyl = O=C(C12CC3CC(CC(C3)C1)C2)*; Orn = NCCC[C@H](N)C(=O)O; Boc = CC(C)(C)OC(=O)*

Tests used:
Mus musculus [1] = assay: Antinociceptive activity was determined using the phenylquinone writhing assay by intravenous administration; type: functional
[2] = target: Neurotensin receptor type 1 (Rattus norvegicus, UniProt P20789); assay: Neurotensin receptor binding affinity by displacement of [3H]- neurotensin
Mus musculus [3] = assay: Antinociceptive activity was determined using the phenylquinone writhing assay by […] administration; type: functional

Chain of Neurotensin receptor type 1 (P20789 whole entry): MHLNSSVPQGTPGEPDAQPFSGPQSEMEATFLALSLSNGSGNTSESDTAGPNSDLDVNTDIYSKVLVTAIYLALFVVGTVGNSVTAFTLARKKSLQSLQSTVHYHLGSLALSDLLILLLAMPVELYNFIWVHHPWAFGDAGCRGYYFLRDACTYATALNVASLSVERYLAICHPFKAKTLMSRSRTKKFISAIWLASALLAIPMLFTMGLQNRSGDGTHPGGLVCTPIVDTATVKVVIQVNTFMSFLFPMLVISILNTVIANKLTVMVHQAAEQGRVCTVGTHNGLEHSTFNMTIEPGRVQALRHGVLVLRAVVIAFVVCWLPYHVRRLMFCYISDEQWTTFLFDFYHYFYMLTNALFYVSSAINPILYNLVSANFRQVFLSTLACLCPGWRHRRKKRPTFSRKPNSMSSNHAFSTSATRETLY

Compound	Ki [2] [nM]	Activity (Mus musculus [1]) [mg/kg]	Activity (Mus musculus [3]) [ug mouse-1]
CC[C@H](C)[C@H](NC(=O)[C@H](Cc1ccc(O)cc1)N/C=C/C(=O)[C@@H]1CCCN1C(=O)[C@H](CCCCN)NC(=O)OC(C)(C)C)C(=O)N[C@@H](CC(C)C)C(=O)O	1630	>27	22
CC[C@H](C)[C@H](NNCC(=O)[C@H](Cc1ccc(O)cc1)NC(=O)[C@@H]1CCCN1C(=O)[C@H](CCCN)NC(=O)OC(C)(C)C)C(=O)N[C@@H](CC(C)C)C(=O)O	> 10000		29
CC[C@H](C)[C@H](NNCC(=O)[C@H](Cc1ccc(O)cc1)NC(=O)[C@@H]1CCCN1C(=O)[C@H](CCCCN)NC(=O)C12C[C@H]3C[C@@H](C1)C[C@@H](C2)C3)C(=O)N[C@@H](CC(C)C)C(=O)O	5960		>50
CC[C@H](C)[C@H](NC(=O)[C@H](Cc1ccc(O)cc1)NC(=O)[C@@H]1CCCN1C(=O)[C@H](CCCCN)NC(=O)C12CC3CC(CC(C3)C1)C2)C(=O)N[C@@H](CC(C)C)C(=O)O (Adamantane1carbonyl-KPYIL-OH)	117	2.2	0.15
CC[C@H](C)[C@H](NC(=O)[C@H](Cc1ccc(O)cc1)NC(=O)[C@@H]1CCCN1C(=O)[C@H](CCCCN)NC(=O)OC(C)(C)C)C(=O)N[C@@H](CC(C)C)C(=O)O (Boc-KPYIL-OH)	63	3	0.018
CC[C@H](C)[C@H](NC(=O)[C@H](Cc1ccc(O)cc1)NC(=O)[C@@H]1CCCN1C(=O)[C@H](CCCN)NC(=O)OC(C)(C)C)C(=O)N[C@@H](CC(C)C)C(=O)O (Boc-[Orn]PYIL-OH)	82	0.74	0.00097

More lines, in order of falling Ki [2], values ahead:

Ki [2] [nM]	Compound	Activity (Mus musculus [1]) [mg/kg]	Activity (Mus musculus [3]) [ug mouse-1]
3860	CC[C@H](C)[C@H](NNCC(=O)[C@H](Cc1ccc(O)cc1)NC(=O)[C@@H]1CCCN1NCC(=O)[C@H](CCCCN)NC(=O)C12C[C@H]3C[C@@H](C1)C[C@@H](C2)C3)C(=O)N[C@@H](CC(C)C)C(=O)O		>50
2980	CC[C@H](C)[C@H](NC(=O)[C@H](Cc1ccc(O)cc1)NNCC(=O)[C@@H]1CCCN1C(=O)[C@H](CCCN)NC(=O)OC(C)(C)C)C(=O)N[C@@H](CC(C)C)C(=O)O	37	0.89
1610	CC[C@H](C)[C@H](NC(=O)[C@H](Cc1ccc(O)cc1)NNCC(=O)[C@@H]1CCCN1C(=O)[C@H](CCCCN)NC(=O)C12C[C@H]3C[C@@H](C1)C[C@@H](C2)C3)C(=O)N[C@@H](CC(C)C)C(=O)O	20	4.5
688	H-KPYIL-OH	>81	5.9
